Results reported in publication PMC3666932 (Archives of pharmacal research, 2012).

Legend:
T. cruzi epimastigotes = conditions: ref Ramos et al., 2009; cited from earlier work
[1] = test system: T. cruzi epimastigotes (Tulahuen CL98 strain); test: Antitrypanosomal activity assay; assay type: cell-based, Trypanosoma cruzi; conditions: for Selectivity index (Cytotoxicity/ Activity): ratio of IC50 for fibroblast cells/ IC50 for parasites; for IC50: Trypanosoma cruzi, TULAHUEN, 48 h, read-out: Antitrypanocidal activity IC50
Cytotoxicity assay = assay type: cell-based; conditions: mouse, Balb/C 3T3 mouse fibroblasts (clone A31)
[2] = Antitrypanosomal activity assay; assay type: cell-based, Trypanosoma cruzi; conditions: mouse (fibroblasts) / Trypanosoma cruzi (parasites)

SMILES	Selectivity index (Cytotoxicity/ Activity) [1]	IC50 [1]	IC50 at 48 h (Cytotoxicity assay)	further results
O=C1C(c2ccccc2)=C(c2ccccc2)C(=O)c2ccccc21 [DPNQ, 2,3-diphenyl-1,4-naphthoquin-one]	–	–	–	LD50 (T. cruzi epimastigotes): 2.5 µM
O=C1C(Cl)=C(N2C(=O)CCC2=O)C(=O)c2ccccc21 [IMDNQ1]	60.25 ± 2.79	–	–	–
O=C1C(Cl)=C(N2C(=O)c3ccccc3C2=O)C(=O)c2ccccc21 [IMDNQ2]	53.97 ± 5.95	–	–	–
CCCC(=O)N(C(=O)CCC)C1=C(Cl)C(=O)c2ccccc2C1=O [IMDNQ3]	31.83 ± 3.17	–	–	–
O=C1C(Cl)=C(N2C(=O)COCC2=O)C(=O)c2ccccc21 [IMDNQ4]	7.43 ± 0.97	–	–	–
O=C1C(Br)=C(N(C(=O)c2ccc(F)cc2)C(=O)c2ccc(F)cc2)C(=O)c2ccccc21 [IMDNQ5, N-(3-Bromo-1,4-dioxo-1,4-dihydronaphthalen-2-yl)-4-fluoro-N-(4-fluorobenzoyl)-benzamide]	–	2.27 ± 0.15 µM	12.8 ± 0.73 µM	–
O=C1C(Br)=C(N(C(=O)c2ccccc2Cl)C(=O)c2ccccc2Cl)C(=O)c2ccccc21 [IMDNQ6, N-(3-Bromo-1,4-dioxo-1,4-dihydronaphthalen-2-yl)-2-chloro-N-(2-chlorobenzoyl)-benzamide]	–	–	14.2 ± 1.42 µM	–
O=C1C(Cl)=C(N(C(=O)c2ccccc2Cl)C(=O)c2ccccc2Cl)C(=O)c2ccccc21 [IMDNQ8, 2-Chloro-N-(2-chlorobenzoyl)-N-(3-chloro-1,4-dioxo-1,4-dihydronaphthalen-2-yl)-benzamide]	–	2.67 ± 0.33 µM	26.5 ± 1.61 µM	–
O=C1C(Cl)=C(N(C(=O)c2ccc(F)cc2)C(=O)c2ccc(F)cc2)C(=O)c2ccccc21 [IMDNQ9, N-(3-Chloro-1,4-dioxo-1,4-dihydronaphthalen-2-yl)-4-fluoro-N-(4-fluorobenzoyl)-benzamide]	–	4.07 ± 0.23 µM	21.8 ± 1.88 µM	–
O=C1C(Cl)=C(N(C(=O)c2cccc(Cl)c2)C(=O)c2cccc(Cl)c2)C(=O)c2ccccc21 [IMDNQ10, 3-Chloro-N-(3-chlorobenzoyl)-N-(3-chloro-1,4-dioxo-1,4-dihydronaphthalen-2-yl)-benzamide]	–	2.23 ± 0.15 µM	–	selectivity ratio at 48 h [2]: 275 ± 13.7
O=C1C(Cl)=C(N(C(=O)CCl)C(=O)CCl)C(=O)c2ccccc21 [IMDNQ11]	3.20 ± 0.44	–	–	–
CC1CS(=O)(=O)CCN1/N=C/c1ccc([N+](=O)[O-])o1 (stereo not shown) [Nifurtimox, reference compound]	–	10.7 ± 1.01 µM	–	–
